We go through one compound from patent US11268064B2, “Lactobacillus rhamnosus RHT-3201 conjugated to polysaccharide polymer binder, and use thereof for prevention or treatment of atopic diseases” (IL DONG PHARMACEUTICAL CO., LTD., priority 2014, dated 2022).

Series [1] has as its system severe atopic dermatitis-induced NC/Nga mice. Kind of series: Severe atopic dermatitis model, SCORAD evaluation. It counts as in vivo. The conditions noted are these: baseline, before treatment with test materials; positive control group. The procedure:
RHT-3201 according to the present invention was used as a test material, while steroid-based dexamethasone (Sigma Co. Ltd), which is used as a main therapeutic agent for severe atopic dermatitis, was used as a positive control. An extract of Dermatophagoides farina, which is a major species of house dust mite, was used as an atopy inducing material. The extract was purchased in an ointment form from Central Lab. Animal Inc.
The dexamethasone was prepared by being dissolved in ethanol into a concentration of 0.1% (w/v), and RHT-3201 of the present invention was prepared by being dissolved in distilled water to doses of 1×10^8 CFU/0.5 ml/mouse, 1×10^9 CFU/0.5 ml/mouse, and 1×10^10 CFU/0.5 ml/mouse, respectively. […]
In the present evaluation, the severity of atopic dermatitis was expressed as a total of evaluation scores of five items, using SCORAD (SCORing Atopic Dermatitis), which is a generally used method for clinical macroscopic evaluation. […] The scores for the five items (no symptom (score 0), mild symptom (score 1), moderate symptom (score 2), severe symptom (score 3) for each item) were added up, while the evaluation score was determined between the lowest score of 0 (a state in which there is no symptom) and the highest score of 15 (a state in which the symptoms for all items were severe). The severity of the mouse skin lesions was evaluated every week (see FIG. 6). […]

The nature of series [2]: Body weight measurement during administration. The class given is in vivo, NC/Nga mice. Conditions: administration during eight weeks; dexamethasone transdermal, RHT-3201 oral (FIG. 9). The method, then:
The dexamethasone was prepared by being dissolved in ethanol into a concentration of 0.1% (w/v), and RHT-3201 of the present invention was prepared by being dissolved in distilled water to doses of 1×10^8 CFU/0.5 ml/mouse, 1×10^9 CFU/0.5 ml/mouse, and 1×10^10 CFU/0.5 ml/mouse, respectively. All the samples to be administered were prepared on the testing day. The dexamethasone was coated on the skin of a testing subject at 100 μl for each subject twice a week, while RHT-3201 according to the present invention was orally administered at 0.5 ml for each subject using a mouse zonde once a day. Distilled water was administered for a normal group and an atopy control group. The administration was conducted for 8 weeks in all the test groups.
The number of scratching behaviors for 15 minutes was counted once a week from week 1 of administration of a test drug. Only the number of scratching behaviors using a hind leg was counted in order to avoid counting scratching behaviors due to the other causes besides scratching behaviors due to pruritus. Meanwhile, the weight loss tends to occur due to side effects of drugs and stress at the time of inducing severe atopic dermatitis. In order to investigate whether the side effect of weight loss occurs by the test materials of the present invention, the test animals were weighed during the administration period of the test materials.

As to `C[C@@H]1C[C@H]2[C@@H]3CCC4=CC(=O)C=C[C@]4(C)[C@@]3(F)[C@@H](O)C[C@]2(C)[C@@]1(O)C(=O)CO` [Dexamethasone, dexamethasone], the “Severe atopic dermatitis score Mean ± SE (n = 6)” value in series [1] is listed as 10.8 ± 0.4. Also, the “change in body weight” value in series [2] is reported as “weight loss for 4 weeks”.
